Results taken from ChEMBL document CHEMBL4825770, “KRAS Mutant Combination Therapy for the Effective Treatment of Cancer” (ACS Med Chem Lett, 2021).

Key:
Assay type in all cases: functional
[1] = test system: NCI-H1792; assay: Cytotoxicity against human NCI-H1792 cells harboring KRAS G12C mutant assessed as reduction in cell viability measured after 72 hrs by CellTiter-Glo luciferase-based ATP detection assay; details: NCI-H1792, 72 h
[2] = test system: NCI-H23; assay: Cytotoxicity against human NCI-H23 cells harboring KRAS G12C mutant assessed as reduction in cell viability measured after 72 hrs by CellTiter-Glo luciferase-based ATP detection assay; details: NCI-H23, 72 h
[3] = test system: NCI-H358; assay: Cytotoxicity against human NCI-H358 cells harboring KRAS G12C mutant assessed as reduction in cell viability measured after 72 hrs by CellTiter-Glo luciferase-based ATP detection assay; details: NCI-H358, 72 h
[4] = test system: NCI-H1373; assay: Cytotoxicity against human NCI-H1373 cells harboring KRAS G12C mutant assessed as reduction in cell viability measured after 72 hrs by CellTiter-Glo luciferase-based ATP detection assay; details: NCI-H1373, 72 h
[5] = test system: NCI-H2122; assay: Cytotoxicity against human NCI-H2122 cells harboring KRAS G12C mutant assessed as reduction in cell viability measured after 72 hrs by CellTiter-Glo luciferase-based ATP detection assay; details: NCI-H2122, 72 h
[6] = test system: NCI-H358; assay: Cytotoxicity against human NCI-H358 cells harboring KRASG12C mutant assessed as reduction in cell viability measured after 72 hrs in presence of compound 1 by CellTiter-Glo luciferase-based ATP detection assay; details: NCI-H358, 72 h
[7] = test system: NCI-H23; assay: Cytotoxicity against human NCI-H23 cells harboring KRASG12C mutant assessed as reduction in cell viability measured after 72 hrs in presence of compound 1 by CellTiter-Glo luciferase-based ATP detection assay; details: NCI-H23, 72 h
[8] = test system: NCI-H2122; assay: Cytotoxicity against human NCI-H2122 cells harboring KRASG12C mutant assessed as reduction in cell viability measured after 72 hrs in presence of compound 1 by CellTiter-Glo luciferase-based ATP detection assay; details: NCI-H2122, 72 h
[9] = test system: NCI-H1373; assay: Cytotoxicity against human NCI-H1373 cells harboring KRASG12C mutant assessed as reduction in cell viability measured after 72 hrs in presence of compound 1 by CellTiter-Glo luciferase-based ATP detection assay; details: NCI-H1373, 72 h
[10] = test system: NCI-H1792; assay: Cytotoxicity against human NCI-H1792 cells harboring KRASG12C mutant assessed as reduction in cell viability measured after 72 hrs in presence of compound 1 by CellTiter-Glo luciferase-based ATP detection assay; details: NCI-H1792, 72 h

| Structure (SMILES) | IC50 [1] [nM] | IC50 [2] [nM] | IC50 [3] [nM] | IC50 [4] [nM] | IC50 [5] [nM] | IC50 [6] [nM] | IC50 [7] [nM] | IC50 [8] [nM] | IC50 [9] [nM] | IC50 [10] [nM] |
| --- | --- | --- | --- | --- | --- | --- | --- | --- | --- | --- |
| C[C@H]1CNC(=O)c2cnn3ccc(nc23)N[C@H](C)c2cc(F)ccc2O1 [REPOTRECTINIB] | 1900 | 4060 | 2500 | 5000 | 1940 | – | – | – | – | – |
| C=CC(=O)N1CCN(c2nc(=O)n(-c3c(C)ccnc3C(C)C)c3nc(-c4c(O)cccc4F)c(F)cc23)[C@@H](C)C1 [SOTORASIB] | > 10000 | > 10000 | 213 | > 10000 | – | 3 | 1500 | 90.5 | 356 | 3000 |
